Earlier results in patent publication US12569575B2, “Radiopaque particle compositions and uses thereof” (GUSTAVE ROUSSY TRANSFERT, priority 2021, dated 2026).
In brackets after ≈: the same amount, converted by molar mass. Counter-ions that a name gives are not always drawn. Like-named read-outs stand apart in the source and are kept apart here.

Conditions: for Solubility in DMSO: solvent DMSO

Row | Structure (SMILES) | Solubility in DMSO [mg/mL] | also measured
1 | CNC(=O)c1ccccc1Sc1ccc2c(/C=C/c3ccccn3)n[nH]c2c1 [Axitinib] | 77 (≈ 199 mM) | –
2 | COc1cc(Nc2c(C#N)cnc3cc(OCCCN4CCN(C)CC4)c(OC)cc23)c(Cl)cc1Cl [Bosutinib] | 100 (≈ 189 mM) | –
3 | COc1cc2nccc(Oc3ccc(NC(=O)C4(C(=O)Nc5ccc(F)cc5)CC4)cc3)c2cc1OC [Cabozantinib malate] | 18 | –
4 | C=CC(=O)Nc1cc2c(Nc3ccc(F)c(Cl)c3)ncnc2cc1OCCCN1CCOCC1 [Canertinib diHCl] | >5.6 | Solubility in Water (solvent water): 10 mg/mL
5 | Cc1nc(Nc2ncc(C(=O)Nc3c(C)cccc3Cl)s2)cc(N2CCN(CCO)CC2)n1 [Dasatinib] | 98 (≈ 201 mM) | –
6 | CN1CCN(c2ccc3nc(-c4c(N)c5c(F)cccc5[nH]c4=O)[nH]c3c2)CC1 [Dovitinib] | 40 (≈ 102 mM) | –
7 | COc1cccc2c1C(=O)c1c(O)c3c(c(O)c1C2=O)C[C@@](O)(C(=O)CO)C[C@@H]3O[C@H]1C[C@H](N)[C@H](O)[C@H](C)O1 [Doxorubicin HCl] | 100 | –
8 | COc1cccc2c1C(=O)c1c(O)c3c(c(O)c1C2=O)C[C@@](O)(C(=O)CO)C[C@@H]3O[C@H]1C[C@H](N)[C@@H](O)[C@H](C)O1 [Epirubicin HCl] | 10 | Solubility in Water (solvent water): 10 mg/mL
9 | C#Cc1cccc(Nc2ncnc3cc(OCCOC)c(OCCOC)cc23)c1 [Erlotinib HCl] | 20 | –
10 | COc1cc2ncnc(Nc3ccc(F)c(Cl)c3)c2cc1OCCCN1CCOCC1 [Gefitinib] | 20 (≈ 44.8 mM) | –
11 | Nc1ccn([C@@H]2O[C@H](CO)[C@@H](O)C2(F)F)c(=O)n1 [Gemcitabine] | 5 (≈ 19 mM) | Solubility in Water (solvent water): 25 mg/mL (≈ 95 mM)
12 | CC(=O)[C@]1(O)Cc2c(O)c3c(c(O)c2[C@@H](O[C@H]2C[C@H](N)[C@H](O)[C@H](C)O2)C1)C(=O)c1ccccc1C3=O [Idarubicin HCl] | 10 | Solubility in Water (solvent water): 1 mg/mL
13 | CS(=O)(=O)CCNCc1ccc(-c2ccc3ncnc(Nc4ccc(OCc5cccc(F)c5)c(Cl)c4)c3c2)o1.Cc1ccc(S(=O)(=O)O)cc1.Cc1ccc(S(=O)(=O)O)cc1 [Lapatinib toluene-sulfonate] | 200 | –
14 | C[C@]12O[C@H](C[C@]1(O)CO)n1c3ccccc3c3c4c(c5c6ccccc6n2c5c31)CNC4=O [Lestaurtinib] | 44 (≈ 100 mM) | –
15 | COc1cc2nccc(Oc3ccc(NC(=O)NC4CC4)c(Cl)c3)c2cc1C(N)=O [Levatinib mesylate] | 9 | –
16 | Cc1ccc(NC(=O)c2ccc(CN3CCN(C)CC3)cc2)cc1Nc1nc(-c2cccnc2)cs1 [Masitinib] | >95 | Solubility in Water (solvent water): <1.2 mg/mL
17 | Cc1cn(-c2cc(NC(=O)c3ccc(C)c(Nc4nccc(-c5cccnc5)n4)c3)cc(C(F)(F)F)c2)cn1 [Nilotinib] | 50 (≈ 94.4 mM) | –
18 | Cc1ccc(Nc2nccc(N(C)c3ccc4c(C)n(C)nc4c3)n2)cc1S(N)(=O)=O [Pazopanib] | 95 (≈ 217 mM) | –
19 | CNC(=O)c1cc(Oc2ccc(NC(=O)Nc3ccc(Cl)c(C(F)(F)F)c3)c(F)c2)ccn1 [Regorafenib] | 97 (≈ 201 mM) | –
20 | CNC(=O)c1cc(Oc2ccc(NC(=O)Nc3ccc(Cl)c(C(F)(F)F)c3)cc2)ccn1 [Sorafenib] | 92 (≈ 198 mM) | –
21 | CCN(CC)CCNC(=O)c1c(C)[nH]c(/C=C2\C(=O)Nc3ccc(F)cc32)c1C [Sunitinib] | 100 (≈ 251 mM) | Solubility in Water (in citrate buffer): 2 mg/mL (≈ 5.02 mM)
22 | COc1cc2nc(N3CCN(C(=O)C4CCCO4)CC3)nc(N)c2cc1OC (centres unmarked) [Terazosin] | – | Solubility in Water (solvent water): 20 mg/mL (≈ 51.6 mM)
23 | COc1cc2c(Nc3ccc(Br)cc3F)ncnc2cc1OCC1CCN(C)CC1 [Vandetanib] | 30 (≈ 63.1 mM) | Solubility in Water (in pH 6.5): 5 mg/mL (≈ 10.5 mM)
24 | Clc1ccc(Nc2nnc(Cc3ccncc3)c3ccccc23)cc1 [Vatalanib diHCl] | 85 | Solubility in Water (solvent water): 10 mg/mL
